≈ marks a conversion by molar mass, not a printed value.
Legend:
Assay in all cases: in vitro antibacterial evaluation, MIC by broth dilution
Type in all cases: cell-based
Staphylococcus sp. = details: broth dilution, 18 hours at 35° C.; for MIC Staphylococcus aureus (GC 1131): strain GC 1131
Outline: (§1)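 Read-out: the lowest concentration at which the test strain fails to grow. Serial dilutions (64-0.06 μg/mL) in Muller-Hinton II […], 5×10^5 CFU/mL inoculum, NCCLS M7-A2 procedure.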

Streptococcus sp. = details: broth dilution, 18 hours at 35° C.
Outline: as §1

Enterococcus sp. = details: broth dilution, 18 hours at 35° C.
Outline: as §1

Escherichia coli = system: Escherichia coli
Outline: as §1

## CSc1ccc(C2OCC3OC(OC4C(CO)OC(Oc5ccc(CC6NC(=O)C(C(C)c7ccccc7)NC(=O)CNC(=O)C(CO)NC(=O)C(C(O)C7CNC(=N)N7C7OC(CO)C(O)C(O)C7O)NC(=O)C(C(O)C7CNC(=N)N7)NC6=O)cc5)C(O)C4O)C(O)C(O)C3O2)cc1 (centres unmarked) [Example 144]
Staphylococcus sp.; inoculum 5×10^5 CFU/mL
  MIC Staphylococcus aureus (GC 1131): 1 µg/mL (≈ 0.7 µM)
Staphylococcus sp.; strain ATCC 29213
  MIC Staphylococcus aureus (ATCC 29213): 2 µg/mL (≈ 1.4 µM)
Staphylococcus sp.
  MIC Staphylococcus aureus (GC 1131): 1 µg/mL (≈ 0.7 µM)
Staphylococcus sp.; strain GC 3051
  MIC Staphylococcus aureus (GC 3051): 1 µg/mL (≈ 0.7 µM)
Staphylococcus sp.; strain GC 3053
  MIC Staphylococcus aureus (GC 3053): 1 µg/mL (≈ 0.7 µM)
Staphylococcus sp.; strain GC 4541
  MIC Staphylococcus aureus (GC 4541): 0.5 µg/mL (≈ 0.35 µM)
Staphylococcus sp.; strain GC 4542
  MIC Staphylococcus aureus (GC 4542): 0.5 µg/mL (≈ 0.35 µM)
Staphylococcus sp.; strain GC 4543
  MIC Staphylococcus aureus-SMITH (GC 4543): 1 µg/mL (≈ 0.7 µM)
Staphylococcus sp.; strain GC 4544
  MIC Staphylococcus aureus (GC 4544): 4 µg/mL (≈ 2.8 µM)
Staphylococcus sp.; strain GC 4545
  MIC Staphylococcus aureus (GC 4545): 1 µg/mL (≈ 0.7 µM)
Staphylococcus sp.; strain GC 4546
  MIC Staphylococcus haemolyticus (GC 4546): 1 µg/mL (≈ 0.7 µM)
Staphylococcus sp.; strain GC 4547
  MIC Coagulase Negative Staphylococcus (GC 4547): 1 µg/mL (≈ 0.7 µM)
Staphylococcus sp.; strain GC 4548
  MIC Coagulase Negative Staphylococcus (GC 4548): 0.25 µg/mL (≈ 0.175 µM)
Staphylococcus sp.; strain GC 4549
  MIC Coagulase Negative Staphylococcus (GC 4549): 0.12 µg/mL (≈ 0.0839 µM)
Staphylococcus sp.; strain GC 4551
  MIC Coagulase Negative Staphylococcus (GC 4551): 0.5 µg/mL (≈ 0.35 µM)
Staphylococcus sp.; strain GC 6257
  MIC Coagulase Negative Staphylococcus (GC 6257): 0.25 µg/mL (≈ 0.175 µM)
Staphylococcus sp.; strain SMITH GC 4543
  MIC Staphylococcus aureus-SMITH (GC 4543): 1 µg/mL (≈ 0.7 µM)
Streptococcus sp.; Streptococcus agalactiae (GC 4564)
  MIC Streptococcus agalactiae (GC 4564): <0.06 µg/mL
Streptococcus sp.; Streptococcus pneumoniae (ATCC 6301)
  MIC Streptococcus pneumoniae (ATCC 6301): <0.06 µg/mL
Streptococcus sp.; Streptococcus pneumoniae (GC 1894)
  MIC Streptococcus pneumoniae (GC 1894): <0.06 µg/mL
Streptococcus sp.; Streptococcus pneumoniae (GC 4565)
  MIC Streptococcus pneumoniae (GC 4565): <0.06 µg/mL
Streptococcus sp.; Streptococcus pyogenes (GC 4563)
  MIC Streptococcus pyogenes (GC 4563): <0.06 µg/mL
Streptococcus sp.; strain ATCC 6301
  MIC Streptococcus pneumoniae (ATCC 6301): <0.06 µg/mL
Streptococcus sp.; strain GC 1894
  MIC Streptococcus pneumoniae (GC 1894): <0.06 µg/mL
Streptococcus sp.; strain GC 4563
  MIC Streptococcus pyogenes (GC 4563): <0.06 µg/mL
Streptococcus sp.; strain GC 4564
  MIC Streptococcus agalactiae (GC 4564): <0.06 µg/mL
Streptococcus sp.; strain GC 4565
  MIC Streptococcus pneumoniae (GC 4565): <0.06 µg/mL
Enterococcus sp.; Enterococcus avium (GC 4558)
  MIC Enterococcus avium (GC 4558): 4 µg/mL (≈ 2.8 µM)
Enterococcus sp.; Enterococcus faecalis (ATCC 29212)
  MIC Enterococcus faecalis (ATCC 29212): 2 µg/mL (≈ 1.4 µM)
Enterococcus sp.; Enterococcus faecalis (GC 2242)
  MIC Enterococcus faecalis (GC 2242): 2 µg/mL (≈ 1.4 µM)
Enterococcus sp.; Enterococcus faecalis (GC 2691)
  MIC Enterococcus faecalis (GC 2691): 2 µg/mL (≈ 1.4 µM)
Enterococcus sp.; Enterococcus faecalis (GC 3059)
  MIC Enterococcus faecalis (GC 3059): 4 µg/mL (≈ 2.8 µM)
Enterococcus sp.; Enterococcus faecalis (GC 4552)
  MIC Enterococcus faecalis (GC 4552): 2 µg/mL (≈ 1.4 µM)
Enterococcus sp.; Enterococcus faecalis (GC 4553)
  MIC Enterococcus faecalis (GC 4553): 4 µg/mL (≈ 2.8 µM)
Enterococcus sp.; Enterococcus faecalis (GC 4554)
  MIC Enterococcus faecalis (GC 4554): 4 µg/mL (≈ 2.8 µM)
Enterococcus sp.; Enterococcus faecalis (GC 6189)
  MIC Enterococcus faecalis (GC 6189): 2 µg/mL (≈ 1.4 µM)
Enterococcus sp.; Enterococcus faecium (GC 2243)
  MIC Enterococcus faecium (GC 2243): 2 µg/mL (≈ 1.4 µM)
Enterococcus sp.; Enterococcus faecium (GC 4556)
  MIC Enterococcus faecium (GC 4556): 2 µg/mL (≈ 1.4 µM)
Enterococcus sp.; Enterococcus faecium (GC 4557)
  MIC Enterococcus faecium (GC 4557): 2 µg/mL (≈ 1.4 µM)
Enterococcus sp.; strain ATCC 29212
  MIC Enterococcus faecalis (ATCC 29212): 2 µg/mL (≈ 1.4 µM)
Enterococcus sp.; strain GC 2242
  MIC Enterococcus faecalis (GC 2242): 2 µg/mL (≈ 1.4 µM)
Enterococcus sp.; strain GC 2243
  MIC Enterococcus faecium (GC 2243): 2 µg/mL (≈ 1.4 µM)
Enterococcus sp.; strain GC 2691
  MIC Enterococcus faecalis (GC 2691): 2 µg/mL (≈ 1.4 µM)
Enterococcus sp.; strain GC 3059
  MIC Enterococcus faecalis (GC 3059): 4 µg/mL (≈ 2.8 µM)
Enterococcus sp.; strain GC 4552
  MIC Enterococcus faecalis (GC 4552): 2 µg/mL (≈ 1.4 µM)
Enterococcus sp.; strain GC 4553
  MIC Enterococcus faecalis (GC 4553): 4 µg/mL (≈ 2.8 µM)
Enterococcus sp.; strain GC 4554
  MIC Enterococcus faecalis (GC 4554): 4 µg/mL (≈ 2.8 µM)
Enterococcus sp.; strain GC 4556
  MIC Enterococcus faecium (GC 4556): 2 µg/mL (≈ 1.4 µM)
Enterococcus sp.; strain GC 4557
  MIC Enterococcus faecium (GC 4557): 2 µg/mL (≈ 1.4 µM)
Enterococcus sp.; strain GC 4558
  MIC Enterococcus avium (GC 4558): 4 µg/mL (≈ 2.8 µM)
Enterococcus sp.; strain GC 6189
  MIC Enterococcus faecalis (GC 6189): 2 µg/mL (≈ 1.4 µM)
Escherichia coli; strain ATCC 25922, 18 hours at 35° C.
  MIC Escherichia coli (ATCC 25922): 32 µg/mL (≈ 22.4 µM)
Escherichia coli; strain GC 4559, 18 hours at 35° C.
  MIC Escherichia coli (GC 4559): 32 µg/mL (≈ 22.4 µM)

From patent US6914045B2, “Glycopeptide antibiotics” (Wyeth Holdings Corporation, priority 2001, dated 2005)
